# According to the supplement of paper PMC10307832:
# Legend:
# Assay in all cases: relative viability (nuclei count vs DMSO), 5 days (fraction); higher = more cells survive
# IA-LM = system: IA-LM
# Summary of the method: (§1)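 Dosing by pin tool came one day after lung cancer cell lines were seeded in 1536-well plates, using either one drug or a fixed anchor-drug dose plus five library-drug doses (not always all listed) in √10 steps. After 5 days, nuclei were counted on 4× images. Relative viability is treated-well nuclei count divided by vehicle-well nuclei count, and values are medians of duplicate plates.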
# Calu-6 = system: Calu-6
# Summary of the method: as §1
# NCI-H1299 = system: NCI-H1299
# Summary of the method: as §1
# EBC-1 = system: EBC-1
# Summary of the method: as §1
# NCI-H1437 = system: NCI-H1437
# Summary of the method: as §1
# NCI-H1703 = system: NCI-H1703
# Summary of the method: as §1
# A549 = system: A549
# Summary of the method: as §1
Structure (SMILES),relative viability (IA-LM; first compound 0.04 µM),relative viability (IA-LM; first compound 0.1265 µM),relative viability (IA-LM; first compound 0.4 µM),relative viability (IA-LM; first compound 1.265 µM),relative viability (IA-LM; first compound 4 µM),relative viability (Calu-6; first compound 0.04 µM),relative viability (Calu-6; first compound 0.1265 µM),relative viability (Calu-6; first compound 0.4 µM),relative viability (Calu-6; first compound 1.265 µM),relative viability (Calu-6; first compound 4 µM),relative viability (NCI-H1299; first compound 0.04 µM),relative viability (NCI-H1299; first compound 0.1265 µM),relative viability (NCI-H1299; first compound 0.4 µM),relative viability (NCI-H1299; first compound 1.265 µM),relative viability (NCI-H1299; first compound 4 µM),relative viability (EBC-1; first compound 0.04 µM),relative viability (EBC-1; first compound 0.1265 µM),relative viability (EBC-1; first compound 0.4 µM),relative viability (EBC-1; first compound 1.265 µM),relative viability (EBC-1; first compound 4 µM),relative viability (NCI-H1437; first compound 0.04 µM),relative viability (NCI-H1437; first compound 0.1265 µM),relative viability (NCI-H1437; first compound 0.4 µM),relative viability (NCI-H1437; first compound 1.265 µM),relative viability (NCI-H1437; first compound 4 µM),relative viability (NCI-H1703; first compound 0.04 µM),relative viability (NCI-H1703; first compound 0.1265 µM),relative viability (NCI-H1703; first compound 0.4 µM),relative viability (NCI-H1703; first compound 1.265 µM),relative viability (NCI-H1703; first compound 4 µM),relative viability (A549; first compound 0.04 µM),relative viability (A549; first compound 0.1265 µM),relative viability (A549; first compound 0.4 µM),relative viability (A549; first compound 1.265 µM),relative viability (A549; first compound 4 µM)
COc1cc(N2CCC(C(N)=O)CC2)ccc1Nc1nc(N)c(Cl)c(Nc2ccccc2S(=O)(=O)C(C)C)n1 [HG-5-88-01] + Cc1nc(NC(=O)N2CCC[C@H]2C(N)=O)sc1-c1ccnc(C(C)(C)C(F)(F)F)c1 [Alpelisib] (partner 2 µM),0.722,1,0.627,0.447,0.503,1.02,1.01,0.908,0.856,0.885,1.04,1.09,0.972,1.05,1.12,0.876,0.98,0.795,0.768,0.86,1.03,1.09,0.873,0.964,1.02,0.265,0.317,0.38,0.303,0.399,0.925,0.715,0.698,0.474,0.527
Clc1ccc(Nc2nnc(Cc3ccncc3)c3ccccc23)cc1 [Vatalanib] + CC1(C)CCC(c2ccc(Cl)cc2)=C(CN2CCN(c3ccc(C(=O)NS(=O)(=O)c4ccc(N[C@H](CCN5CCOCC5)CSc5ccccc5)c(S(=O)(=O)C(F)(F)F)c4)cc3)CC2)C1 [Navitoclax] (partner 0.5 µM),0.869,0.701,0.686,0.746,0.737,0.919,0.756,0.913,0.788,0.757,1.04,1.05,1.06,1.04,1.06,0.382,0.396,0.46,0.368,0.328,1.09,1.09,1.12,1.13,1.15,0.994,,1.71,0.643,0.301,1.21,1.33,1.31,1.16,1.06
Clc1ccc(Nc2nnc(Cc3ccncc3)c3ccccc23)cc1 [Vatalanib] + CS(=O)(=O)CCNCc1ccc(-c2ccc3ncnc(Nc4ccc(OCc5cccc(F)c5)c(Cl)c4)c3c2)o1 [Lapatinib] (partner 2 µM),0.869,0.816,0.885,0.674,0.674,1.14,1.02,1.09,1.05,1.07,0.96,0.961,0.931,0.939,0.969,0.165,0.204,0.22,0.232,0.202,0.856,0.779,0.934,0.734,0.848,1.28,1.05,1.4,0.611,0.435,0.991,0.918,1.05,1,1.01
Clc1ccc(Nc2nnc(Cc3ccncc3)c3ccccc23)cc1 [Vatalanib] + CS(=O)(=O)N1CCN(Cc2cc3nc(-c4cccc5[nH]ncc45)nc(N4CCOCC4)c3s2)CC1 [Pictilisib] (partner 1 µM),0.368,0.354,0.319,0.337,0.36,0.891,0.907,0.986,0.883,0.835,0.835,0.703,0.967,0.66,0.857,0.346,0.393,0.45,0.276,0.411,0.49,0.456,0.518,0.432,0.432,0.229,0.206,0.242,0.209,0.227,0.495,0.506,0.502,0.52,0.505
Clc1ccc(Nc2nnc(Cc3ccncc3)c3ccccc23)cc1 [Vatalanib] + C[C@@H](Oc1cc(-c2cnn(C3CCNCC3)c2)cnc1N)c1c(Cl)ccc(F)c1Cl [Crizotinib] (partner 1 µM),0.649,0.875,0.724,0.743,0.721,0.756,0.662,0.779,0.779,0.643,0.956,0.96,0.957,0.964,0.965,0.218,0.178,0.176,0.191,0.21,0.978,0.934,1.02,0.886,0.958,0.669,0.77,0.866,0.524,0.303,0.857,0.843,0.907,0.597,0.713
Clc1ccc(Nc2nnc(Cc3ccncc3)c3ccccc23)cc1 [Vatalanib] + C[C@]1(O)C[C@@H](c2nc(-c3ccc4ccc(-c5ccccc5)nc4c3)c3c(N)nccn32)C1 [Linsitinib] (partner 1 µM),0.763,0.59,0.69,0.55,0.582,,0.926,1.02,0.912,1.01,1.05,0.955,0.948,0.961,0.967,1.14,0.777,0.994,0.812,0.808,1.09,1.03,1.14,0.956,1.08,0.804,,1.21,0.386,0.211,0.51,0.573,0.703,0.656,0.592
Clc1ccc(Nc2nnc(Cc3ccncc3)c3ccccc23)cc1 [Vatalanib] + Cc1nc(NC(=O)N2CCC[C@H]2C(N)=O)sc1-c1ccnc(C(C)(C)C(F)(F)F)c1 [Alpelisib] (partner 2 µM),0.747,0.754,0.715,0.797,0.918,1.09,0.95,1.08,0.958,0.938,1.02,1.08,1.05,1.02,1.04,0.842,0.698,0.82,0.856,0.852,0.975,1,0.997,1.04,0.991,0.327,,0.395,0.235,0.212,0.795,0.758,0.922,0.694,0.707
